Results taken from patent US6831079B1, “Vasopressin agonist formulation and process” (American Cyanamid Company, priority 1999, dated 2004).
Values joined by “and” are separate entries in the source; they are usually repeats but may differ in a detail not shown here. Identical values can stand only once.

Assays:
Vasopressin V2 = Vasopressin V2 (Rattus norvegicus, UniProt Q00788); assay: Vasopressin V2 agonist effects in normal conscious water-loaded rats; type: in vivo; set-up: from tissue; host or cells: whole living Sprague-Dawley rat; the receptor is the animal's own (renal, by own knowledge); settings: Sprague-Dawley (CD) rats, 10 mg/kg oral; for Osmolality (% Increase): change in osmolality as percent of control; for Urine Volume (% decrease): vs. control, urine collected four hours
From the text: Vasopressin V2 Agonist Effects of Test Compounds in Normal Conscious Water-loaded Rats
Male or female normotensive Sprague-Dawley rats (Charles River Laboratories, Inc., Kingston, N.Y.) of 350-500 g body weight were supplied with standard rodent diet (Purina Rodent Lab. Chow 5001) and water ad libitum. On the day of test, rats were placed individually into metabolic cages equipped with devices to separate the feces from the urine and containers for collection of urine. […] The vehicle used was 20% dimethylsulfoxide (DMSO) in 2.5% preboiled corn starch. Thirty minutes after dosing the test compound, rats were gavaged with water at 30 ml/kg into the stomach using a feeding needle. During the test, rats were not provided with water or food. Urine was collected for four hours after dosing of the test compound. At the end of four hours, urine volume was measured. Urinary osmolality was determined using a Fiske One-Ten Osmometer (Fiske Associates, Norwood, Mass., 02062) or an Advanced CRYOMATIC Osmometer, Model 3C.2 (Advanced Instruments, Norwood, Mass.). Determinations of Na^+, K^+ and Cl^− ion were carried out using ion specific electrodes in a Beckman SYNCHRON EL-ISE Electrolyte System analyzer. The urinary osmolality should increase proportionally. In the screening test, two rats were used for each compound. If the difference in the urine volume of the two rats was greater than 50%, a third rat was used.

Sequence of Vasopressin V2 (Q00788 whole entry): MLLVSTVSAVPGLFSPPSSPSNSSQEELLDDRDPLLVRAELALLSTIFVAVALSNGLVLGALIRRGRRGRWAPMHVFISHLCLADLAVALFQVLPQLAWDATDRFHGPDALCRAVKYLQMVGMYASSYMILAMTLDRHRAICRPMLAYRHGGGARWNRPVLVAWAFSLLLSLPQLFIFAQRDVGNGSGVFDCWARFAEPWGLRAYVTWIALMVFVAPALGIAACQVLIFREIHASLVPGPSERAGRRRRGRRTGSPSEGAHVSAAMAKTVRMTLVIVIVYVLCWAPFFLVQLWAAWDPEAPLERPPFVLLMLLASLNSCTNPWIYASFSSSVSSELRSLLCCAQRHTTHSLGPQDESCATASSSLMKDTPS

Cc1ccn(-c2ccc(C(=O)N3Cc4ccc(C)n4Cc4ccccc43)c(Cl)c2)n1 [Example 18, [2-Chloro-4-(3-methylpyrazol-1-yl)-phenyl]-(3-methyl-5H,11H-pyrrolo[2,1-c][1,4]benzodiazepin-10-yl)-methanone]
Osmolality (% Increase) (Vasopressin V2): 214%
Urine Volume (% decrease) (Vasopressin V2): 52%
melting point: 178 to 180 °C

O=C(c1ccc(-c2ccn(C(=O)c3ccc(F)cc3Cl)n2)cc1)N1Cc2cccn2Cc2ccccc21 [Example 37, {4-[1-(2-Chloro-4-fluoro-benzoyl)-1H-pyrazol-3-yl]-phenyl}-(5H,11H-pyrrolo[2,1-c][1,4]benzodiazepin-10-yl}methanone]
Osmolality (% Increase) (Vasopressin V2): 370%
Urine Volume (% decrease) (Vasopressin V2): 71%
melting point: 150 to 157 °C

Cc1cn(-c2ccc(C(=O)N3Cc4cccn4Cc4ccccc43)cc2)cn1 [Example 64, [4-(4-Methyl-imidazol-1-yl)-phenyl]-(5H,11H-pyrrolo[2,1-c][1,4]-benzodiazepin-10-yl)-methanone]
Osmolality (% Increase) (Vasopressin V2): 349%
Urine Volume (% decrease) (Vasopressin V2): 79%
melting point: 140 to 145 °C

Cc1ccn(-c2ccc(C(=O)N3Cc4cccn4Cc4ccccc43)c(Cl)n2)n1 [Example 100, [2-Chloro-6-(3-methylpyrazol-1-yl)-pyridin-3-yl]-(5H,11H-pyrrolo[2,1-c][1,4]benzodiazepin-10-yl)-methanone]
Osmolality (% Increase) (Vasopressin V2): 248%
Urine Volume (% decrease) (Vasopressin V2): 24%
melting point: 171 to 172 °C

Cc1ccn(-c2ccc(C(=O)N3Cc4cccn4Cc4ccccc43)c(Cl)c2)n1 (single isomer, unassigned) [Example 9A]
Osmolality (% Increase) (Vasopressin V2): 325%
Urine Volume (% decrease) (Vasopressin V2): 70%
melting point: 137 to 138 °C and 141 to 143 °C

Cc1cnn(-c2ccc(C(=O)N3Cc4cccn4Cc4ccccc43)cc2)c1 [Example 60, [4-(4-Methyl-pyrazol-1-yl)-phenyl]-(5H,11H-pyrrolo[2,1-c][1,4]-benzodiazepin-10-yl)-methanone]
Osmolality (% Increase) (Vasopressin V2): 165%
Urine Volume (% decrease) (Vasopressin V2): 54%
melting point: 179 to 181 °C

Cn1cc(-c2ccc(C(=O)N3Cc4cccn4Cc4ccccc43)cc2)cn1 [Example 55, [4-(1-Methyl-1H-pyrazol-4-yl)-phenyl]-(5H,11H-pyrrolo[2,1-c][1,4]-benzodiazepin-10-yl)-methanone]
Osmolality (% Increase) (Vasopressin V2): 164%
Urine Volume (% decrease) (Vasopressin V2): 80%
melting point: 200 to 201 °C

Cc1ccn(-c2ccc(C(=O)O)c(Cl)c2)n1 [Example 97, 2-Chloro-4-(3-methyl-1H-pyrazol-1-yl)-benzoic Acid]
Osmolality (% Increase) (Vasopressin V2): 106%
Urine Volume (% decrease) (Vasopressin V2): 3%
melting point: 192 to 193 °C

O=C(c1ccc(-n2cccn2)nc1Cl)N1Cc2cccn2Cc2ccccc21 [Example 99, (2-Chloro-6-pyrazol-1-yl-pyridin-3-yl)-(5H,11H-pyrrolo[2,1-c][1,4]benzodiazepin-10-yl)-methanone]
Osmolality (% Increase) (Vasopressin V2): 205%
Urine Volume (% decrease) (Vasopressin V2): 43%
melting point: 133 to 135 °C

Cc1ccn(-c2ccc(C(=O)N3Cc4ccc(Br)n4Cc4ccccc43)c(Cl)c2)n1 [Example 88, (3-Bromo-5H,11H-pyrrolo[2,1-c][1,4]benzodiazepin-10-yl)-[2-chloro-4-(3-methyl-pyrazol-1-yl)-phenyl]-methanone]
Osmolality (% Increase) (Vasopressin V2): 226%
Urine Volume (% decrease) (Vasopressin V2): 68%
melting point: 148 to 149 °C (dec.)

Cc1ccn(-c2ccc(C(=O)N3Cc4cccn4Cc4ccccc43)c(F)c2)n1 [Example 92, [2-Fluoro-4-(3-methyl-pyrazol-1-yl)-phenyl]-(5H,11H-pyrrolo[2,1-c][1,4]-benzodiazepin-10-yl)-methanone]
Osmolality (% Increase) (Vasopressin V2): 454%
Urine Volume (% decrease) (Vasopressin V2): 69%
melting point: 192 to 193 °C

CCCC(=O)n1ccc(-c2ccc(C(=O)N3Cc4cccn4Cc4ccccc43)cc2)n1 [Example 33, 1-{3-[4-(5H,11H-Pyrrolo[2,1-c][1,4]benzodiazepine-10-carbonyl)-phenyl]-pyrazol-1-yl}-butan-1-one]
Osmolality (% Increase) (Vasopressin V2): 362%
Urine Volume (% decrease) (Vasopressin V2): 68%
melting point: 105 to 110 °C

Cc1nc(-c2ccc(C(=O)N3Cc4cccn4Cc4ccccc43)cc2)n(C)n1 [Example 51, [4-(2,5-Dimethyl-2H-[1,2,4]triazol-3-yl)-phenyl]-(5H,11H-pyrrolo[2,1-c]-[1,4]benzodiazepin-10-yl)-methanone]
Urine Volume (% decrease) (Vasopressin V2): 72%
melting point: 193 to 195 °C

Cc1ncn(-c2ccc(C(=O)N3Cc4cccn4Cc4ccccc43)c(Cl)c2)n1 [Example 102, [2-Chloro-4-(3-methyl-1,2,4-triazol-1-yl)-phenyl](5H,11H-pyrrolo[2,1-c]-[1,4]benzodiazepin-10-yl)-methanone]
melting point: 191 to 193 °C

O=C(O)c1ccc(C(=O)N2Cc3cccn3Cc3ccccc32)c(Cl)c1 [Example 78, 3-Chloro-4-(5H,11H-Pyrrolo[2,1-c][1,4]benzodiazepine-10-carbonyl)-benzoic Acid]
Osmolality (% Increase) (Vasopressin V2): 115%
Urine Volume (% decrease) (Vasopressin V2): 21%
melting point: 198 to 199 °C

O=C(c1ccc(-c2ncn[nH]2)cc1Cl)N1Cc2cccn2Cc2ccccc21 [Example 83, [2-Chloro-4-(2H-1,2,4-triazol-3-yl)-phenyl]-(5H,11H-pyrrolo[2,1-c][1,4]-benzodiazepin-10-yl)-methanone]
Osmolality (% Increase) (Vasopressin V2): 442%
Urine Volume (% decrease) (Vasopressin V2): 85%
melting point: 174 to 177 °C

CC(=O)c1ccc(C(=O)N2Cc3cccn3Cc3ccccc32)c(Cl)c1 [Example 121, 1-[4-(5H,11H-pyrrolo[2,1-c][1,4]benzodiazepine-10-carbonyl)-3-chlorophenyl]-ethanone]
Osmolality (% Increase) (Vasopressin V2): 155%
Urine Volume (% decrease) (Vasopressin V2): 22%
melting point: 98 to 100 °C

O=C(c1ccc(-c2ncn[nH]2)cc1)N1Cc2cccn2Cc2ccccc21 [Example 48, (5H,11H-Pyrrolo[2,1-c][1,4]benzodiazepin-10-yl)-[4-(2H-[1,2,4]triazol-3-yl)-phenyl]-methanone]
melting point: 225 to 227 °C

NC(=O)c1ccc(C(=O)N2Cc3cccn3Cc3ccccc32)c(Cl)c1 [Example 79, 3-Chloro-4-(5H,11H-pyrrolo[2,1-c][1,4]benzodiazepine-10-carbonyl)-benzamide]
Osmolality (% Increase) (Vasopressin V2): 123%
Urine Volume (% decrease) (Vasopressin V2): 38%
melting point: 211 to 212 °C

Cc1ncn(-c2ccc(C(=O)N3Cc4cccn4Cc4ccccc43)c(C(F)(F)F)c2)n1 [Example 103, [4-(3-Methyl-1,2,4-triazol-1yl)-2-trifluoromethyl-phenyl](5H,11H-pyrrolo[2,1-c][1,4]benzodiazepin-10-yl)-methanone]
melting point: 148 to 150 °C
